“Also recorded” adds a separate entry of the source. Where a SMILES comes first, the peptide text is derived from it. [ ]: non-standard residue; d: D form. The star is where a group is joined. Sta = CC(C)C[C@H](N)[C@@H](O)CC(=O)O; Isovaleryl = CC(C)CC(=O)*; Nle = CCCC[C@H](N)C(=O)O; Cbz = O=C(OCc1ccccc1)*; CH2F = FC*
Experiments:
PC3 cells [1] = assay: PC3 cell viability and cell death (PI exclusion, annexin V, caspase-3/7); type: cell-based, human
Protocol: Cell viability and cell cycle analysis. Cell number and viability was measured using trypan blue exclusion assay using a Vi-Cell Analyzer (Beckman Coulter), or labeled with 1 μg/ml PI in PBS/1% BSA followed by cytofluorometric analysis with a fluorescence-activated cell sorter (FACS) (Becton Dickinson). FITC-conjugated Annexin V was used for the assessment of phosphatidylserine exposure by FACS analysis. Caspase activation was analyzed using a Caspase-Glo 3/7 Assay kit (Promega). For cell cycle analysis, cells were fixed with drop-wise addition of chilled 70% ethanol, washed with PBS and resuspended in staining solution containing 50 μg/ml PI and 60 units of RNAse A. DNA content was analyzed by flow cytometry using the FlowJo and ModFit software (Becton Dickinson).

PC3 cells [2] = assay: Autophagy markers in PC3 cells (EM AVs, GFP-LC3, LC3-II/LC3-I, MDC, AO); type: cell-based, human
Protocol: Western blot analysis, immunofluorescence, 1HC and TUNEL assay: For Western blot analysis, total protein lysates were subjected to SDS-PAGE and transferred to nitrocellulose. […] Detection and quantification were performed using an Odyssey infrared scanner (LICOR) using the manufacturer's software. For immunofluorescence staining, cells were fixed in 3% paraformaldehyde and permeabilized with 0.01% digitonin in PBS, followed by a rabbit polyclonal anti-LC3 (Abgent) primary antibody detected with a cy3-conjugated anti-rabbit secondary antibody (Jackson Immunoresearch). For IHC, formalin-fixed, paraffin-embedded specimens were collected. 5-μm-thick paraffin-embedded sections were stained using an anti-Ki-67 (MIB-1, DakoCytomation) antibody with the Dako ARK kit (Dako Corporation). Tissues were counterstained with haematoxylin, dehydrated, and mounted. In all cases, antigen retrieval was performed with the Dako Target Retrieval Kit as per manufacturer's instructions. For TUNEL assay, formalin-fixed, paraffin-embedded sections were stained using an in situ cell death detection kit (POD; Roche Diagnostic) according to the manufacturer's instructions.
Ultrathin sections were stained with uranyl acetate and lead citrate. Numbers of AV were counted on systematically sampled cytoplasmic areas of 4.5 μm^2 (n≧64 per condition). The percent AV area was measured by means of a square mesh grid laid over ≧5 sets of systematically sampled micrographs with each set covering a cytoplasmic area ≧80 μm^2. The average percent of apoptotic nuclei in tumor tissues was calculated from the number of apoptotic nuclei in 3 to 4 sets of 100 systematically counted tumor cell nuclei.
Multispectral imaging flow cytometry: Cells treated with various agents were stained with Acridine Orange and analyzed by the ImageStream system (Amnis Corporation, Seattle, Wash.) using the IDEAS image analysis program. The DNA AOGreen image and the vacuolar AO Red image were first compensated into separate channels, and then the percentage of apoptotic/anucleate cells (based on AO nuclear morphology and intensity) and vacuolated cells (AO Red+) were quantified. […] AORed Intensity is plotted on the second histogram with an arbitrary gate (R5) drawn to include events with the brightest AO Red intensity.

Akt = assay: Immunoblot of Akt and S6 phosphorylation in PC3 cells; type: cell-based, human; details: 5 mM NAC
Text: Western blot analysis, immunofluorescence, 1HC and TUNEL assay: For Western blot analysis, total protein lysates were subjected to SDS-PAGE and transferred to nitrocellulose. Antibodies used were: anti-Akt1, anti-Akt2, anti-Akt3, anti-total-Akt, anti-p-Akt (Ser473), anti-p-Akt (Thr308), anti-p-S6 (Ser235/236), anti-PARP and anti-cleaved caspase-3 (Cell Signaling Technology); anti-p-PRAS40 (Invitrogen); anti-p27^Kip1 (Santa Cruz Biotechnology); anti-LC3 (Novus); anti-LAMP2 and anti-Cathepsin D (BD Biosciences); and anti-GAPDH (Advanced Immunochemical Inc.). Primary antibodies were detected using IR Dye 800-conjugated (Rockland) and Alexa-Fluoro 680-conjugated (Molecular Probes) species-selective secondary antibodies. Detection and quantification were performed using an Odyssey infrared scanner (LICOR) using the manufacturer's software. For immunofluorescence staining, cells were fixed in 3% paraformaldehyde and permeabilized with 0.01% digitonin in PBS, followed by a rabbit polyclonal anti-LC3 (Abgent) primary antibody detected with a cy3-conjugated anti-rabbit secondary antibody (Jackson Immunoresearch). For IHC, formalin-fixed, paraffin-embedded specimens were collected. 5-μm-thick paraffin-embedded sections were stained using an anti-Ki-67 (MIB-1, DakoCytomation) antibody with the Dako ARK kit (Dako Corporation). Tissues were counterstained with haematoxylin, dehydrated, and mounted. In all cases, antigen retrieval was performed with the Dako Target Retrieval Kit as per manufacturer's instructions. For TUNEL assay, formalin-fixed, paraffin-embedded sections were stained using an in situ cell death detection kit (POD; Roche Diagnostic) according to the manufacturer's instructions.

PC3 cells [3] = assay: Mitochondrial superoxide (MitoSOX red) and cellular ROS in PC3 cells; type: cell-based, human
Protocol: (B) PC3 cells treated as in A were stained with the Image-iT LIVE green ROS Detection kit and examined by fluorescence microscopy at 24 h. […] (C) Quantification of MitoSOX red and ROS green fluorescence intensities by flow cytometry at 24 h. Cells were treated as in A and B. Error bars represent SEM (n=3).
Because mitochondria are the primary intracellular source of superoxide (O2^−) generation, we analyzed O2^− production using MitoSOX red, an O2^− indicator that accumulates in the mitochondria as a function of membrane potential and fluoresces upon oxidation and subsequent binding to DNA.

[4] = Autophagic vacuole accumulation by side scatter (SSC) in a flow cytometer; type: cell-based
Text: Inhibitors include 3-phenyl-2-(4-((4-(5-(pyridin-2-yl)-1H-1,2,4-triazol-3-yl)piperidin-1-yl)methyl)phenyl)-1,6-naphthyridin-5(6H)-one (II-3), benzyl 2-(4-(3-ethylureido)phenyl)-4-(1,4-oxazepan-4-yl)-5H-pyrrolo[3,4-d]pyrimidine-6(7H)-carboxylate (III-1); 1-ethyl-3-(4-(4-morpholino-7-(pyrimidin-2-yl)-5,6,7,8-tetrahydropyrido[3,4-d]pyrimidin-2-yl)phenyl)urea (III-2), (R)-1-(44(2-(2-aminopyrimidin-5-yl)-7-methyl-4-morpholinothieno[3,2-d]pyrimidin-6-yl)methyl)piperazin-1-yl)-2-hydroxypropan-1-one (III-3), 4-(2-(1H-indazol-4-yl)-6-((4-(methylsulfonyl)piperazin-1-yl)methyl)thieno[3,2-d]pyrimidin-4-yl)morpholine (III-6), (S)—N-(4-(benzo[d][1,3]dioxol-5-yl)thiazol-2-yl)-N-(3-(2-formylpiperidin-1-yl)propyl)thiophene-2-carboxamide (IV-2) and Rapamycin.
FIG. 14 depicts CQ (10 μM) increases the number and size of autophagic vacuoles when combined with the various mTOR, PI3K, and Akt inhibitors.

PC3 cells [5] = assay: Microarray analysis of autophagy gene expression in PC3 cells; type: cell-based, human; details: 1 or 5 μM for 6 or 24 hours, normalized to DMSO
Protocol: PC3 cells were induced to express shRNA to indicated Akt isoforms for 72 hours by Doxycycline, RNA was extracted from both Dox treated (Dox+) or untreated control (Dox−) cells. Microarray analysis was carried out using Affymetrix chips. Ratios of the expression levels of each autophagy gene from Dox+ and Dox− samples are shown. Data are mean values from 3 independent experiments.
RNA was extracted from the cells. Microarray analysis was carried out using Affymetrix chips. Expression levels of each autophagy gene are normalized to the DMSO controls. Data are mean values from 3 independent experiments.

SMILES: CC(=O)N[C@@H](CS)C(=O)O [NAC, N-acetylcysteine]
- rescue of cell death induced by II-4 (Akti) and CQ (PC3 cells [1]): NAC rescued cell death induced by Akti+CQ; also recorded: rescued cell viability in the presence of II-4 and CQ
- effect of NAC on Akti-induced autophagy markers (PC3 cells [2]; 5 mM NAC): counteracted all these effects induced by Akti with or without CQ; also recorded: reduced Akti-induced LC3 and GFP-LC3 lipidation, p62 degradation, and GFP-LC3 puncta formation
- effect of NAC on Akti's inhibition of pAkt or pS6 (Akt): did not affect Akti's ability to inhibit pAkt or pS6
- effect of NAC on MitoSOX Red signal (PC3 cells [3]; 5 mM NAC): reduced MitoSOX Red signal induced by the various treatments

SMILES: CO[C@H]1C[C@@H]2CC[C@@H](C)[C@@](O)(O2)C(=O)C(=O)N2CCCC[C@H]2C(=O)O[C@H]([C@H](C)C[C@@H]2CC[C@@H](O)[C@H](OC)C2)CC(=O)[C@H](C)/C=C(\C)[C@@H](O)[C@@H](OC)C(=O)[C@H](C)C[C@H](C)/C=C/C=C/C=C/1C [Rapamycin, rapamycin]
- autophagic vacuole accumulation (SSC), inhibitor alone [4]: induce increased autophagic vacuole accumulation

SMILES: Cc1nc(-c2ccc(CN3CCC(n4c(=O)[nH]c5ccccc54)CC3)cc2)c(-c2ccccc2)nc1O [II-1, 1-(1-(4-(5-hydroxy-6-methyl-3-phenylpyrazin-2-yl)benzyl)piperidin-4-yl)-1H-benzo[d]imidazol-2(3H)-one]
- autophagy gene expression (PC3 cells [5]): induce autophagy gene expression

SMILES: Cc1c(CN2CCN(C(=O)[C@@H](C)O)CC2)sc2c(N3CCOCC3)nc(-c3cnc(N)nc3)nc12 [III-3]
- autophagic vacuole accumulation (SSC), inhibitor alone [4]: induce increased autophagic vacuole accumulation

SMILES: CC(C)CC(=O)N[C@H](C(=O)N[C@H](C(=O)N[C@@H](CC(C)C)[C@@H](O)CC(=O)N[C@@H](C)C(=O)N[C@@H](CC(C)C)[C@@H](O)CC(=O)O)C(C)C)C(C)C [pepstatin A] (Isovaleryl-VV[Sta]A[Sta]-OH)
- cell death in combination with II-4 (Akti) (PC3 cells [1]): promoted cell death together with Akti-112

SMILES: O=C[C@@H]1CCCCN1CCCN(C(=O)c1cccs1)c1nc(-c2ccc3c(c2)OCO3)cs1 [IV-2, (S)—N-(4-(benzo[d][1,3]dioxol-5-yl)thiazol-2-yl)-N-(3-(2-formylpiperidin-1-yl)propyl)thiophene-2-carboxamide]
- autophagic vacuole accumulation (SSC), inhibitor alone [4]: induce increased autophagic vacuole accumulation

SMILES: CCNC(=O)Nc1ccc(-c2nc3c(c(N4CCOCC4)n2)CCN(c2ncccn2)C3)cc1 [III-2, 1-ethyl-3-(4-(4-morpholino-7-(pyrimidin-2-yl)-5,6,7,8-tetrahydropyrido[3,4-d]pyrimidin-2-yl)phenyl)urea]
- autophagic vacuole accumulation (SSC), inhibitor alone [4]: induce increased autophagic vacuole accumulation

SMILES: COC(=O)C[C@H](NC(=O)[C@H](C)NC(=O)[C@@H](NC(=O)OCc1ccccc1)C(C)C)C(=O)CF [zVAD.fmk] (Cbz-Val-Ala-Asp(OMe)-CH2F)
- rescue of cell death induced by II-4 (Akti) and CQ (PC3 cells [1]): partially rescued cell death at all concentrations tested

SMILES: O=c1[nH]ccc2nc(-c3ccc(CN4CCC(c5n[nH]c(-c6ccccn6)n5)CC4)cc3)c(-c3ccccc3)cc12 [II-3, 3-phenyl-2-(4-((4-(5-(pyridin-2-yl)-1H-1,2,4-triazol-3-yl)piperidin-1-yl)methyl)phenyl)-1,6-naphthyridin-5(6H)-one]
- autophagic vacuole accumulation (SSC), inhibitor alone [4]: induce increased autophagic vacuole accumulation

SMILES: CCCNC(=O)[C@H]1O[C@@H]1C(=O)N[C@H](C(=O)N1CCC[C@H]1C(=O)OC)[C@@H](C)CC [CA-074-Me]
- rescue of cell death induced by II-4 (Akti) and CQ (PC3 cells [1]): Neither of the broad-spectrum cysteine protease inhibitors zFA.fmk and N-Acetyl-Leu-Leu-Nle-CHO nor a more specific cathepsin B inhibitor CA-074-Me showed significant rescue of cell death

SMILES: CCCC[C@@H](C=O)NC(=O)[C@H](CC(C)C)NC(=O)[C@H](CC(C)C)NC(C)=O [N-Acetyl-Leu-Leu-Nle-CHO] (Ac-Leu-Leu-[Nle]-aldehyde)
- rescue of cell death induced by II-4 (Akti) and CQ (PC3 cells [1]): Neither of the broad-spectrum cysteine protease inhibitors zFA.fmk and N-Acetyl-Leu-Leu-Nle-CHO nor a more specific cathepsin B inhibitor CA-074-Me showed significant rescue of cell death

SMILES: CO/C1=C\C(C)=C\[C@@H](C)[C@@H](O)[C@@H](C)C/C(C)=C/C=C/[C@H](OC)[C@@H]([C@@H](C)[C@@H](O)[C@H](C)[C@@]2(O)C[C@@H](O)[C@H](C)[C@@H](C(C)C)O2)OC1=O [Ba, bafilomycin A1]
- cell death in combination with shAkt123 (PC3 cells [1]; Dox, 10 μM CQ or […] Ba, 0.5% or 0% FBS): promoted cell death in combination with shAkt 123

SMILES: CC(NC(=O)[C@H](Cc1ccccc1)NC(=O)OCc1ccccc1)C(=O)CF (stereo partly shown) [zFA.fmk]
- rescue of cell death induced by II-4 (Akti) and CQ (PC3 cells [1]): Neither of the broad-spectrum cysteine protease inhibitors zFA.fmk and N-Acetyl-Leu-Leu-Nle-CHO nor a more specific cathepsin B inhibitor CA-074-Me showed significant rescue of cell death

SMILES: NC(=O)[C@@H]1CCCCN1CCCN(C(=O)c1cccs1)c1nc(-c2cc(-c3ccccc3)no2)cs1 [IV-1, (S)-1-(3-(N-(4-(3-phenylisoxazol-5-yl)thiazol-2-yl)thiophene-2-carboxamido)propyl)piperidine-2-carboxamide]
- autophagy gene expression (PC3 cells [5]): induce autophagy gene expression

SMILES: CCNC(=O)Nc1ccc(-c2nc3c(c(N4CCCOCC4)n2)CN(C(=O)OCc2ccccc2)C3)cc1 [III-1, benzyl 2-(4-(3-ethylureido)phenyl)-4-(1,4-oxazepan-4-yl)-5H-pyrrolo[3,4-d]pyrimidine-6(7H)-carboxylate]
- autophagic vacuole accumulation (SSC), inhibitor alone [4]: induce increased autophagic vacuole accumulation

SMILES: Cn1cnc(N)c2ncnc1-2 [3-MA, 3-methyladenine]
- effect of 3-MA pretreatment on cell death promoted by CQ or Ba in shAkt expressing cells (PC3 cells [1]; 1 mM 3-MA): delayed this effect; also recorded: suppressed the cell death-promoting effect of either CQ or Ba
- effect of 3-MA on rate of cell death in III-5 and CQ treated cells (PC3 cells [1]; 3-MA pretreatment): slowed down the rate of cell death
- effect of 3-MA on LC3-II to -I ratios and MDC+ vacuoles in III-5 and CQ treated cells (PC3 cells [2]; 3-MA pretreatment): suppressed this effect; also recorded: reduced both LC3-II to -I ratios and the accumulation of MDC^+ vacuoles
- effect of 3-MA pretreatment on ROS levels (PC3 cells [3]): reduced ROS signals generated by CQ, Akti and Akti+CQ; also recorded: reduced ROS levels induced by II-4

Source: patent US20140004209A1, “AUTOPHAGY INDUCER AND INHIBITOR COMBINATION THERAPY FOR THE TREATMENT OF NEOPLASMS” (GENENTECH, INC., priority 2010, published 2014)
